Reference: publication PMC8308496, “RP-18 TLC Chromatographic and Computational Study of Skin Permeability of Steroids” (Pharmaceuticals, 2021)
Where two headings read alike, the source gives them in different places.

Assays:
[1] = RP-18 thin layer chromatography (RM); type: physicochemical; conditions: RP-18 F254s TLC, acetonitrile/pH 7.4 phosphate buffered saline 70:30 (v/v); RM = log (1/Rf−1)
Description: Thin layer chromatography was performed according to [33] on 10 × 20 cm glass-backed RP-18 F254s TLC plates from Merck, Germany (layer thickness 0.25 mm). Before use, the plates were prewashed with methanol-dichloromethane 1:1 (v/v) and dried overnight in ambient conditions. […] The chromatographic plates were developed in a vertical chromatographic chamber lined with filter paper and previously saturated with the mobile phase vapor for 20 min. The mobile phase consisted of acetonitrile/pH 7.4 phosphate buffered saline 70:30 (v/v). The development distance was 95 mm from the plate bottom edge. After development, the plates were dried at room temperature and examined under UV light (254 nm) and with the Desaga CD60 densitometer (Multiwavelength Scan, 200–300 nm at 20 nm intervals). All chromatograms were repeated in duplicate, and the mean Rf values were used in further investigations. The chromatographic parameter RM considered in these investigations was defined by Bate-Smith and Westall: RM= log (1/Rf−1).

[2] = experimental, cited from earlier work
[3] = nonsteroid compounds 39 to 46, source not given
[4] = hydrocortisone esters 17 to 27, ref 40 (Anderson et al.)

Compound | RM [1] | logKp^exp ([2]; compounds 1 to 16) | other results
CC(=O)OCC(=O)[C@H]1CC[C@H]2[C@@H]3CCC4=CC(=O)CC[C@]4(C)[C@H]3CC[C@]12C [compound 30, Deoxycortisone acetate] | 0.41 | – | –
C[C@]12CCC(=O)C=C1CC[C@@H]1[C@@H]2[C@@H](O)C[C@@]2(C)[C@H]1CC[C@]2(O)C(=O)CO [compound 2, Hydrocortisone] | −0.33 | −4.79 | –
C[C@]12CC[C@H]3[C@@H](CCC4=CC(=O)CC[C@@]43C)[C@@H]1CC[C@@H]2C(=O)CO [compound 11, Deoxycorticosterone] | – | −3.34 | –
C[C@H]1O[C@@H](O[C@H]2[C@@H](O)C[C@H](O[C@H]3[C@@H](O)C[C@H](O[C@H]4CC[C@@]5(C)[C@H](CC[C@@H]6[C@@H]5C[C@@H](O)[C@]5(C)[C@@H](C7=CC(=O)OC7)CC[C@]65O)C4)O[C@@H]3C)O[C@@H]2C)C[C@H](O)[C@@H]1O [compound 37, Digoxin] | −0.91 | – | –
C#C[C@]1(O)CC[C@H]2[C@@H]3[C@H](C)CC4=C(CCC(=O)C4)[C@H]3CC[C@@]21C [compound 38, Tibolone] | 0.33 | – | –
CCC(=O)O[C@H]1CC[C@H]2[C@@H]3CCC4=CC(=O)CC[C@]4(C)[C@H]3CC[C@]12C [compound 32, Testosterone propionate] | 0.85 | – | –
CCCCCCC(=O)O[C@H]1CC[C@H]2[C@@H]3CCC4=CC(=O)CC[C@]4(C)[C@H]3CC[C@]12C [compound 34, Testosterone enanthate] | 1.38 | – | –
COc1ccc2c(c1)c(CC(=O)O)c(C)n2C(=O)c1ccc(Cl)cc1 [compound 44, Indomethacin] | −0.07 | – | –
C[C@]12CC[C@@H]3c4ccc(O)cc4CC[C@H]3[C@@H]1CCC2=O [compound 5, Estrone] | 0.09 | −2.44 | –
CN1C(C(=O)Nc2ccccn2)=C(O)c2ccccc2S1(=O)=O [compound 45, Piroxicam] | 0.00 | – | logKp^exp [2, 3]: −3.81
C[C@]12CCC(=O)C=C1CC[C@@H]1[C@@H]2[C@@H](O)C[C@@]2(C)[C@H]1CC[C@]2(O)C(=O)COC(=O)CCCCCO [compound 23, HC 6-hydroxyhexanoate] | – | – | logKp^exp [2, 4]: −3.04
C[C@]12CCC(=O)C=C1CC[C@@H]1[C@@H]2C(=O)C[C@@]2(C)[C@H]1CC[C@]2(O)C(=O)CO [compound 16, Cortisone] | – | −5.00 | –
C[C@]12CC[C@@H]3c4ccc(O)cc4CC[C@H]3[C@@H]1CC[C@@H]2O [compound 14, Estradiol] | – | −2.21 | –
CC(=O)OCC(=O)[C@@]1(O)CC[C@H]2[C@@H]3CCC4=CC(=O)CC[C@]4(C)[C@H]3C(=O)C[C@@]21C [compound 31, Cortisone acetate] | −0.12 | – | –
CC(=O)OCC(=O)[C@@]1(O)CC[C@H]2[C@@H]3CCC4=CC(=O)CC[C@]4(C)[C@H]3[C@@H](O)C[C@@]21C [compound 29, HC acetate] | −0.12 | – | –
C[C@]12CC[C@@H]3c4ccc(OC(=O)c5ccccc5)cc4CC[C@H]3[C@@H]1CC[C@@H]2O [compound 28, Estradiol benzoate] | 0.91 | – | –
C[C@]12CC[C@H]3[C@@H](CCC4=CC(=O)CC[C@@]43C)[C@@H]1CC[C@@H]2O [compound 12, Testosterone] | – | −2.65 | –
CC(C)Cc1ccc(C(C)C(=O)O)cc1 (centres unmarked) [compound 39, Ibuprofen] | 0.08 | – | logKp^exp [2, 3]: −1.44

Compound | RM [1] | logKp^exp ([2]; compounds 1 to 16) | other results
CCCCCCCC(=O)OCC(=O)[C@@]1(O)CC[C@H]2[C@@H]3CCC4=CC(=O)CC[C@]4(C)[C@H]3[C@@H](O)C[C@@]21C [compound 27, HC octanoate] | – | – | logKp^exp [2, 4]: −1.21
CC(=O)[C@H]1CC[C@H]2[C@@H]3CCC4=CC(=O)CC[C@]4(C)[C@H]3CC[C@]12C [compound 3, Progesterone] | 0.60 | – | –
C[C@]12CCC(=O)C=C1CC[C@@H]1[C@@H]2[C@@H](O)C[C@]2(C=O)[C@@H](C(=O)CO)CC[C@@H]12 [compound 6, Aldosterone] | – | −4.41 | –
COC(=O)[C@@H]1CC2=CC(=O)CC[C@]2(C)[C@@]23O[C@@H]2C[C@@]2(C)[C@@H](CC[C@@]24CCC(=O)O4)[C@H]13 [compound 36, Eplerenone] | −0.21 | – | –
C[C@]12CCC(=O)C=C1CC[C@@H]1[C@@H]2CC[C@@]2(C)[C@H]1CC[C@]2(O)C(=O)CO [compound 13, Cortexolone] | – | −4.12 | –
CC(=O)Oc1ccccc1C(=O)O [compound 41, Aspirin] | −0.50 | – | logKp^exp [2, 3]: −2.14
CC(=O)[C@@]1(O)CC[C@H]2[C@@H]3CCC4=CC(=O)CC[C@]4(C)[C@H]3CC[C@@]21C [compound 9, 17-α-Hydroxyprogesterone] | – | −3.22 | –
CNC(=C[N+](=O)[O-])NCCSCc1ccc(CN(C)C)o1 [compound 40, Ranitidine] | −0.66 | – | –
C[C@@H]1C[C@H]2[C@@H]3CCC4=CC(=O)C=C[C@]4(C)[C@@]3(F)[C@@H](O)C[C@]2(C)[C@@]1(O)C(=O)CO [compound 1, Dexamethasone] | −0.35 | – | –
CC(=O)S[C@@H]1CC2=CC(=O)CC[C@]2(C)[C@H]2CC[C@@]3(C)[C@@H](CC[C@@]34CCC(=O)O4)[C@H]12 [compound 35, Spironolactone] | 0.14 | – | –
COC(=O)CCCCCC(=O)OCC(=O)[C@@]1(O)CC[C@H]2[C@@H]3CCC4=CC(=O)CC[C@]4(C)[C@H]3[C@@H](O)C[C@@]21C [compound 25, HC methylpimelate] | – | – | logKp^exp [2, 4]: −2.27
CC(=O)[C@H]1CC[C@H]2[C@@H]3CC=C4C[C@@H](O)CC[C@]4(C)[C@H]3CC[C@]12C [compound 8, Pregnenolone] | – | −2.82 | –
O=C(O)c1ccccc1O [compound 43, Salicylic acid] | −0.37 | – | logKp^exp [2, 3]: −2.84
C[C@]12C=CC(=O)C=C1CC[C@@H]1[C@@H]2[C@@H](O)C[C@@]2(C)[C@H]1CC[C@]2(O)C(=O)CO [compound 4, Prednisolone] | −0.33 | −4.35 | –
CCCCCC(=O)OCC(=O)[C@@]1(O)CC[C@H]2[C@@H]3CCC4=CC(=O)CC[C@]4(C)[C@H]3[C@@H](O)C[C@@]21C [compound 26, HC hexanoate] | – | – | logKp^exp [2, 4]: −1.74
COc1ccc2cc([C@H](C)C(=O)O)ccc2c1 [compound 46, Naproxen] | −0.16 | – | –
COC(=O)c1ccc(O)cc1 [compound 42, Methylparaben] | −0.41 | – | logKp^exp [2, 3]: −2.04
C[C@]12CCC(=O)C=C1CC[C@@H]1[C@@H]2CC[C@@]2(C)[C@H]1CC[C@]2(C)O [compound 33, Methyltestosterone] | 0.41 | – | –
